From PubChem BioAssay AID504675 (Southern Research Specialized Biocontainment Screening …, 2011) come the findings set out here.

A value given as a limit tells only on which side of the number the result lay.

As a reminder, the CC50 is the concentration at which the toxic effect on the cells reaches its halfway point.

For the assay, the system named is E. coli UTI89 K1 capsule, phage K1F lysis, OD600. The experiment in a line: UTI89 protection from K1F phage killing – strain UTI89, C7 control, set 3, capsule biogenesis inhibitor project, dose response (AID 504675). The following applies: measured here: cytotoxicity test.
Consider `COc1cccc(C(=O)Nc2nc3ccc(OC)cc3s2)c1`, for which the CC50 was found to be 23.4 µM.

Turning to `COc1ccc2nc(NC(=O)c3cccs3)sc2c1`, the CC50 was found to be 104 µM.

In the case of `N=c1n(CCN2CCCC2)c2ccccc2n1CC(O)c1ccc(Cl)c(Cl)c1` (stereo not given), the CC50 worked out at 9.38 µM.

As to `COc1cccc(-c2cc(C(=O)O)c3ccccc3n2)c1`, the CC50 stood at 78.3 µM.

For the compound `O=C(O)c1cc(-c2cccc(F)c2)nc2ccccc12`, the CC50 was over 300 µM.

Consider `COc1ccc2nc(NC(=O)c3ccc(F)cc3)sc2c1`, for which the cytotoxic concentration (CC50) amounted to 21.7 µM.

In turn, `COc1ccc(C(=O)Nc2nc3ccc(OC)cc3s2)cc1` showed a CC50 of over 300 µM.

`COc1ccc2nc(NC(=O)c3ccccc3)sc2c1` displayed a CC50 of 45.4 µM.

The compound `COc1ccc2nc(NC(=O)c3ccco3)sc2c1` registered a CC50 of 93.4 µM.

`COc1ccc2nc(NC(=O)c3ccccc3OC)sc2c1` yielded a 50% cytotoxic concentration (CC50) of 66.8 µM.
